Reference: US20240228474A1, “ANTIBACTERIAL COMPOUND” (DISCUVA LIMITED, priority 2021, published 2024)
Converted amounts (≈) assume the structure as drawn.

What was measured:
E. coli UT189 [1] = assay: Murine urinary tract infection proof-of-concept study, IV bolus; format: in vivo
Description: Compound (I) and comparative compound (III) were evaluated in proof-of-concept studies in murine models for the treatment of a respiratory infection with Gram-negative bacteria of the order Enterobacterales, a bacteraemia or bloodstream infection with Gram-negative bacteria of the order Enterobacterales, and a urinary tract infection with Gram-negative bacteria of the order Enterobacterales. Each dot, triangle or square indicator represents a single mouse. LOD refers to the limit of detection of the bacteria. […] Each of the proof-of-concept studies was carried out separately. By vehicle is meant pharmaceutically acceptable carrier or excipient. For the proof-of-concept study for the treatment of a urinary tract infection with Enterobacterales, female C3H/HeN mice were infected with E. coli UT189. Twenty-four hours after infection (‘pre-treatment’ in FIGS. 4a-c), a vehicle (20% hydroxypropyl β cyclodextrin) containing no compound (I) or comparative compound (III), or a vehicle (20% hydroxypropyl β cyclodextrin) containing compound (I) or comparative compound (III), was administered by IV bolus of 20 mg/kg, TID (8 hrs apart), over 3 days.

E. coli UT189 [2] = assay: Further murine urinary tract infection study, intravenous infusion; format: in vivo; details: 96 h
Description: Compound (I) was evaluated in further proof-of-concept studies in murine models for the treatment of a respiratory infection with Gram-negative bacteria of the order Enterobacterales, and a urinary tract infection with Gram-negative bacteria of the order Enterobacterales. Each dot, triangle or square indicator represents a single mouse. LOD refers to the limit of detection of the bacteria. […] Each of the proof-of-concept studies was carried out separately. By vehicle is meant pharmaceutically acceptable excipient or carrier. For the further proof-of-concept study for the treatment of a urinary tract infection with Enterobacterales, female C3H/HeN mice were infected with E. coli UT189. Twenty-four hours after infection (‘pre-treatment’ in FIGS. 6a-c), mice were either treated with a vehicle control (20% hydroxypropyl β cyclodextrin) containing no compound (I), or a vehicle (20% hydroxypropyl β cyclodextrin) containing compound (I), administered by intravenous infusion for 1 hour (QD) with a dose of 20 mg/kg of compound (I). For some mice who received vehicle containing compound (I), an additional 1-hour continuous intravenous infusion was administered 5 hours after the time at which the first administration begun (BID, 5 hrs apart). The once or twice daily administration was continued for three days. For QD, administration took place between 24 to 25 hours, 48 to 49 hours, and 72 to 73 hours after infection, and for BID, administration took place between 24 to 25 hours, 29 to 30 hours, 48 to 49 hours, 53 to 54 hours, 72 to 73 hours and 77 to 78 hours after infection.

[3] = tested on: 44 ligands (including receptors, transporters, ion channels, enzymes and kinases); assay: In vitro safety pharmacology binding assays (CEREP profile); details: 10 μM, 44 ligands tested
Description: In vitro pharmacology binding assays were carried out for compound (I), comparative compound (II) and comparative compound (III) to evaluate the percentage of inhibition against 44 ligands (including receptors, transporters, ion channels, enzymes and kinases) at a concentration of 10 μM of compound (I), comparative compound (II) or comparative compound (III). Compound binding was calculated as a percentage of inhibition of the binding of a radioactively labelled ligand specific for each target. Results showing an inhibition higher than 50% are considered to represent discernible effects of compound (I), comparative compound (II) or comparative compound (III). […] The in vitro pharmacology binding assays for compound (I) and comparative compounds (II) and (III) was carried out separately over different days, and compared in FIGS. 1a, 1b, 1c, and 1d.

[4] = tested on: Klebsiella pneumoniae ATCC 43816; assay: Murine respiratory infection proof-of-concept study, IV bolus; format: in vivo
Description: Compound (I) and comparative compound (III) were evaluated in proof-of-concept studies in murine models for the treatment of a respiratory infection with Gram-negative bacteria of the order Enterobacterales, a bacteraemia or bloodstream infection with Gram-negative bacteria of the order Enterobacterales, and a urinary tract infection with Gram-negative bacteria of the order Enterobacterales. Each dot, triangle or square indicator represents a single mouse. LOD refers to the limit of detection of the bacteria. […] Each of the proof-of-concept studies was carried out separately. By vehicle is meant pharmaceutically acceptable carrier or excipient. For the proof-of-concept study for the treatment of a respiratory infection caused or exacerbated by Gram-negative bacteria of the order Enterobacterales, CD-1 mice were infected with Klebsiella pneumoniae ATCC 43816. Two hours after infection (‘pre-treatment’ in FIG. 2), a vehicle (20% hydroxypropyl β cyclodextrin) containing no compound (I) or comparative compound (III), or a vehicle (20% hydroxypropyl β cyclodextrin) containing compound (I) or comparative compound (III), was administered by IV bolus at 20 mg/kg, TID (8 hrs apart), over one day.

[5] = tested on: Klebsiella pneumoniae (NCTC 13438); assay: MIC by broth microdilution (CLSI); format: cell-based; details: NCTC13438, planktonic bacteria, 20-24 hour incubation
Description: (§1) Minimum Inhibitory Concentrations (MICs) versus Escherichia coli (NCTC 13441) and Klebsiella pneumoniae (NCTC 13438) (planktonic bacteria) were determined by the broth microdilution procedure in line with the guidelines of the Clinical and Laboratory Standards Institute (Clinical and Laboratory Standards Institute. Methods for Dilution Antimicrobial Susceptibility Tests for Bacteria That Grow Aerobically, Approved Standard-Eleventh Edition, CLSI document M07, 11 Jan. 2018). The broth dilution method involved a two-fold serial dilution of compounds in 96-well microtitre plates, giving a final concentration range of 0.39-200 μM and a maximum final concentration of 2% DMSO. The bacterial strains tested were Escherichia coli (NCTC 13441) and Klebsiella pneumoniae (NCTC 13438). Strains were grown in cation-adjusted Müller-Hinton broth or on Luria Bertani agar at 37° C. in an ambient atmosphere. The MIC (μM) was determined as the lowest concentration of compound that inhibits growth following a 20-24 hour incubation period.

[6] = tested on: Escherichia coli (NCTC 13441); assay: MIC by broth microdilution (CLSI); format: cell-based; details: NCTC13441, planktonic bacteria, 20-24 hour incubation
Description: as §1

[7] = IV bolus 20 mg/kg TID over 3 days, 96 h after initial infection
[8] = difference in log reduction, 96 h
[9] = 1 h IV infusion 20 mg/kg BID (5 hrs apart) for three days
[10] = 1 h IV infusion 20 mg/kg QD for three days

SMILES: Cc1cnccc1-c1[nH]c(N)nc1-c1ccc2c(c1)N(C(=O)C(C)(C)N)CCO2 [Compound (I), 2-amino-1-(6-(2-amino-5-(3-methylpyridin-4-yl)-1H-imidazol-4-yl)-2,3-dihydro-4H-benzo[b][1,4]oxazin-4-yl)-2-methylpropan-1-one]
- bacterial burden in the urine at end of study (E. coli UT189 [1]; IV bolus 20 mg/kg TID over 3 days, 96 h): below the limit of detection (LOD)
- reduction of bacterial burden in the bladder compared to vehicle (E. coli UT189 [1]; [7]): 5.67 log
- reduction of bacterial burden in the kidney compared to vehicle (E. coli UT189 [1]; [7]): 4.73 log
- more efficacious than comparative compound (III), bladder (E. coli UT189 [1]; [8]): 3 log
- more efficacious than comparative compound (III), urine (E. coli UT189 [1]; [8]): 3 log
- reduction of bacterial burden in the urine compared to vehicle (E. coli UT189 [1]; female C3H/HeN mice, IV bolus 20 mg/kg TID over 3 days, 96 h after initial infection): 6.59 log
- reduction of bacterial burden in the bladder compared to vehicle (E. coli UT189 [2]; [9]): 5.84 log
- reduction of bacterial burden in the kidney compared to vehicle (E. coli UT189 [2]; [9]): 4.3 log
- reduction of bacterial burden in the urine compared to vehicle (E. coli UT189 [2]; [9]): 5.87 log
- reduction of bacterial burden in the bladder compared to vehicle (E. coli UT189 [2]; [10]): 5.01 log
- reduction of bacterial burden in the kidney compared to vehicle (E. coli UT189 [2]; [10]): 3.17 log
- bacterial burden in the bladder at end of study (E. coli UT189 [2]; BID (5 hrs apart)): below the limit of detection (LOD)
- bacterial burden in the kidney at end of study (E. coli UT189 [2]; BID (5 hrs apart)): below the limit of detection (LOD)
- bacterial burden in the urine at end of study (E. coli UT189 [2]; BID (5 hrs apart)): below the limit of detection (LOD)
- bacterial burden in the bladder at end of study (E. coli UT189 [2]; QD): below the limit of detection (LOD)
- bacterial burden in the urine at end of study (E. coli UT189 [2]; QD): below the limit of detection (LOD)
- reduction of bacterial burden in the urine compared to vehicle (E. coli UT189 [2]; female C3H/HeN mice, 1 h IV infusion 20 mg/kg QD for three days): 4.86 log
- ligands with inhibition higher than 50% [3]: only a single ligand
- reduction of bacterial burden in the lung compared to vehicle ([4]; CD-1 mice, IV bolus 20 mg/kg TID over one day, 26 h from initial infection): 6.24 log
- more efficacious than comparative compound (III), lung ([4]; difference in log reduction, 26 h): 2 log
- MIC [5]: 1.56 to 3.13 µM (≈ 0.612 to 1.23 µg/mL)
- MIC [6]: ≤ 0.39 µM
